Marks after values point to notes of the source that are not given here.

The source of these data is US20230102309A1, “TYROSINE KINASE INHIBITOR CONJUGATES” (Ascendis Pharma Oncology Division A/S, priority 2019, published 2023).

Data set [1] deals with MC-38 tumor cells. Briefly: In vivo anti-tumor efficacy and combination efficacy with anti-PD1, bilateral MC-38 tumors. The arrangement: species or system C57BL/6 mice. As to conditions: Axitinib 25 mg/kg oral twice daily, antibodies 10 mg/kg IP; for Absolute tumor volume of left flank tumors, mean: left (not injected) tumor, hydrogels 50 μL IT into right tumor once Day 0 (7a 378, 8a 136, 8b 47 μg eq. axitinib); for Absolute tumor volume of right flank tumors, mean: right (IT-treated) tumor, hydrogels 50 μL IT once Day 0 (7a 378, 8a 136, 8b 47 μg eq. axitinib). Here is the method:
The study was conducted in female C57BL/6 mice with an age of 6-8 weeks at the day of tumor inoculation. Mice were implanted with 1×10^6 MC-38 tumor cells into the left and right flanks. When right flank tumors were grown to a mean tumor volume of ˜104 mm^3, mice were randomized into treatment cohorts. For animals that received intratumoral injections, the right tumor was selected for treatment.
(§1) Following treatment initiation, anti-tumor efficacy was assessed by determination of tumor volumes at various time points from tumor size measurements with a caliper. Tumor volumes were calculated according to the formula: […]
(§2) where L is the length of the tumor and W the width (both in mm).

Data set [2] has as its system MC-38/C11G tumor cells. Put plainly: Anti-tumor efficacy within the in vivo PK study. Further details: species or system C57BL/6 mice. As to conditions: Axitinib 3 mg/kg oral twice a day for 14 days, 9c single IT 50 μL. Here is the method: (§3) The study was conducted in female C57BL/6 mice with an age of 6-8 weeks at the day of tumor inoculation. Mice were implanted with 1×10^6 of MC-38/C11G tumor cells into the right flank.
(§4) When tumors were grown to a mean tumor volume of ˜94 mm^3, mice were randomized into treatment cohorts (day 0). Following randomization, animals received either a single intratumoral injection of hydrogel 1 or hydrogel 9c as a single intratumoral dose in an injection volume of 50 μL, or with orally administered Axitinib suspended in 0.5% carboxymethylcellulose at 3 mg/kg in a 100 μl dose volume twice a day for 14 days. Hydrogels were administered as suspensions in pH 5.5 20 mM sodium succinate, 77 g/l trehalose dihydrate, 0.2% Pluronic F-68 buffer.
as §1, §2

Data set [3] can be described thus: Axitinib concentration in plasma samples. It counts as in vivo, C57BL/6 mice. The conditions noted are these: female, C57BL/6, mouse, 9c single IT 50 μL (n=4), Axitinib 3 mg/kg oral (n=3), LLOQ 50.0 pg/mL. Here is the method: as §3, §4
After 0.5, 1, 4 12, and 24 hours following treatment, 4 mice from the hydrogel 9c and Axitinib treated groups were sacrificed and terminal blood was collected in EDTA. Plasma was prepared after blood withdrawal. After 72 hours following treatment, 4 mice from the hydrogel 9c treated group were sacrificed and tumors were excised and snap frozen. Plasma samples underwent further processing by solid-phase extraction prior to Axitinib concentration determination by LCMS/MS.
All solvents (UPLC grade) as well as formic acid (ULC/MS quality) were purchased from Biosolve BV, Valkenswaard, The Netherlands. Axitinib concentrations in plasma were determined after solid phase extraction via liquid chromatography separation and detection by mass spectrometry (LCMS). As internal standard [^13C, D3]-axitinib was used. LCMS analysis was carried out by using an Agilent Infinity ultra high performance liquid chromatography (UHPLC) system coupled to an AbSciex 6500+ QTrap triple quadrupole mass spectrometer (QQQ) via an ESI probe. Chromatography was performed on a C18 analytical UHPLC column (YMC-Triart, 2.1×50 mm, 1.9 μm particle). Water containing 0.1% formic acid (v/v) was used as mobile phase A and acetonitrile with 0.1% formic acid as mobile phase B. The gradient system comprised a linear increase from 15% B to 30% B in 2.7 min. […]

With `CNC(=O)c1ccccc1Sc1ccc2c(/C=C/c3ccccn3)n[nH]c2c1` [Axitinib, axitinib], the “Absolute tumor volume of left flank tumors, mean” value was 112.18 mm^3 in data set [1] (day 0 post-treatment); 321.44 mm^3 in data set [1] (day 3 post-treatment); 432.85 mm^3 in data set [1] (day 5 post-treatment); 601.11 mm^3 in data set [1] (day 7 post-treatment); 741.81† mm^3 in data set [1] (day 10 post-treatment); 967.56†, †† mm^3 in data set [1] (day 12 post-treatment). For the same compound, the “Absolute tumor volume of right flank tumors, mean” value in data set [1] (day 0 post-treatment) is 104.22 mm^3; in data set [1] (day 3 post-treatment) it was 304.55 mm^3; in data set [1] (day 5 post-treatment), 419.99 mm^3; in data set [1] (day 7 post-treatment), 543.06 mm^3; in data set [1] (day 10 post-treatment) it was 763.99 mm^3; in data set [1] (day 12 post-treatment) it was 994.16† mm^3. Besides, the “Absolute tumor volume, mean” value was 93.862 mm^3 in data set [2] (day 0 post-treatment); 243.647 mm^3 in data set [2] (day 4 post-treatment); 418.787 mm^3 in data set [2] (day 7 post-treatment); 710.390 mm^3 in data set [2] (day 11 post-treatment); 977.619* mm^3 in data set [2] (day 14 post-treatment). The same compound displayed a concentration at 0.5 h in data set [3] (0.5 h) of 101 ng/mL. The same compound showed a concentration at 1 h in data set [3] (1 h) of 76.8 ng/mL. Further, the concentration at 12 h in data set [3] (12 h) came to 0.797 ng/mL.
